Values quoted from earlier work, collected in patent publication US20120322745A1, “OPTIMIZED METHOD FOR OBTAINING ACE ACTIVITY INHIBITORY PEPTIDES FROM WHEY, ACE INHIBITORY PEPTIDES AND FOOD COMPRISING THEM” (QUEIZUAR ,S.L., priority 2011, published 2012).

target: angiotensin converting enzyme (ACE); conditions: ACE inhibitory peptides obtained by enzymatic hydrolysis of whey proteins

| Substance | IC50 |
| --- | --- |
| β-Lg f(22-25): ACE inhibitory peptide, sequence LAMA, from whey protein hydrolysis with trypsin (UniProt P02754 38-41, looked up, fragment) | 556 µM |
| β-Lg (f 122-125): ACE inhibitory peptide, sequence LVRT, from whey protein hydrolysis with thermolysin (UniProt P02754 138-141, looked up, fragment) | 2470 µM |
| ALPMHIR [β-Lg (f 142-148)] | 42.6 µM |
| WLAHK [α-La f(104-108)] | 77 µM |
| LDAQSAPLR [β-Lg f(32-40)] | 635 µM |
| β-Lg f(103-105): ACE inhibitory peptide, sequence LLF, from whey protein hydrolysis with thermolysin (UniProt P02754 119-121, looked up, fragment) | 79.8 µM |
| VGINYWLAHK [α-La f(99-108)] | 327 µM |
| β-Lg (f 102-105): ACE inhibitory peptide, sequence YLLF, from hydrolysis with pepsin, trypsin, chemotrypsin (UniProt P02754 118-121, looked up, fragment) | 172 µM |
| VLDTDYK [β-Lg f(94-100)] | 946 µM |
| β-Lg f(15-19): ACE inhibitory peptide, sequence VAGT, from hydrolysis with pepsin, trypsin, chemotrypsin | 1050 µM |
| ALPMH (UniProt P02754 158-162, looked up, fragment) [β-Lg f(142-146)] | 521 µM |
| LKPTPEGN [β-Lg (f 46-53)] | > 2700 µM |
| β-Lg f(81-83): ACE inhibitory peptide, sequence VFK, from whey protein hydrolysis with trypsin (UniProt P02754 97-99, looked up, fragment) | 1030 µM |
| β-Lg f(78-80): ACE inhibitory peptide, sequence IPA, from whey protein hydrolysis with proteinase k (UniProt P02754 94-96, looked up, fragment) | 141 µM |
| CMENSA [β-Lg f(106-111)] | 788 µM |
| β-Lg f(58-61): ACE inhibitory peptide, sequence LKQW, from whey protein hydrolysis with thermolysin | 34.7 µM |
| ALKAWSVAR [BSA f(208-216)] | 3 µM |
